Conditions: Gas, Cylindrical cavity resonance method

O=C=O [carbon dioxide]
Conditions | speed of sound [m/s]
260 K, 317.37 kPa | 249.8
260 K, 379.95 kPa | 249.06
260 K, 434.17 kPa | 248.41
260 K, 501.31 kPa | 247.6
260 K, 562.69 kPa | 246.84
260 K, 626.77 kPa | 246.05
260 K, 701.21 kPa | 245.12
260 K, 760.19 kPa | 244.37
260 K, 822.03 kPa | 243.58
260 K, 884.92 kPa | 242.76
270 K, 305.05 kPa | 254.61
270 K, 362.27 kPa | 254.01
270 K, 460.73 kPa | 252.96
270 K, 556.68 kPa | 251.92
270 K, 644.89 kPa | 250.96
270 K, 732.1 kPa | 250
270 K, 819.89 kPa | 249.01
270 K, 906.73 kPa | 248.03
270 K, 977.38 kPa | 247.22
280 K, 280.31 kPa | 259.38
280 K, 362.38 kPa | 258.61
280 K, 453.25 kPa | 257.75
280 K, 537.04 kPa | 256.95
280 K, 621.46 kPa | 256.13
280 K, 692.2 kPa | 255.44
280 K, 798.98 kPa | 254.39
280 K, 884.2 kPa | 253.55
280 K, 981.82 kPa | 252.56
290 K, 228.71 kPa | 264.19
290 K, 282.86 kPa | 263.73
290 K, 355.64 kPa | 263.12
290 K, 421.86 kPa | 262.56
290 K, 490.56 kPa | 261.98
290 K, 571.6 kPa | 261.28
290 K, 655.16 kPa | 260.56
290 K, 733.65 kPa | 259.88
290 K, 819.49 kPa | 259.12
300 K, 280.85 kPa | 268.06
300 K, 340.26 kPa | 267.62
300 K, 415.37 kPa | 267.05
300 K, 500.85 kPa | 266.39
300 K, 583.49 kPa | 265.76
300 K, 663.9 kPa | 265.13
300 K, 755.49 kPa | 264.42
300 K, 847.25 kPa | 263.7
300 K, 927.15 kPa | 263.07
300 K, 1017.3 kPa | 262.36
304.09 K, 434.91 kPa | 268.66
304.09 K, 544.65 kPa | 267.86
304.09 K, 772.25 kPa | 266.17
304.09 K, 868.88 kPa | 265.45
304.09 K, 968.58 kPa | 264.69
312.75 K, 394.2 kPa | 272.63
312.75 K, 441.68 kPa | 272.31
312.75 K, 534.77 kPa | 271.69
312.75 K, 636.23 kPa | 271
312.75 K, 729.55 kPa | 270.37
312.75 K, 858.54 kPa | 269.49
312.75 K, 959.38 kPa | 268.8
322.75 K, 314.03 kPa | 277.28
322.75 K, 412.26 kPa | 276.69
322.75 K, 522.36 kPa | 276.02
322.75 K, 624.83 kPa | 275.4
322.75 K, 735.59 kPa | 274.72
322.75 K, 832.63 kPa | 274.13
322.75 K, 929.78 kPa | 273.53
332.75 K, 316.28 kPa | 281.3
332.75 K, 415.5 kPa | 280.76
332.75 K, 520.66 kPa | 280.19
332.75 K, 544.84 kPa | 280.05
332.75 K, 664.72 kPa | 279.39
332.75 K, 755.5 kPa | 278.89
332.75 K, 857.33 kPa | 278.33
332.75 K, 958.15 kPa | 277.78

From the NIST ThermoML archive (doi:10.1021/je500424b)
